ChEMBL document CHEMBL1909046, “DrugMatrix in vitro pharmacology data”

Biological target: Sodium-dependent noradrenaline transporter (Homo sapiens, UniProt P23975)
Assay: DRUGMATRIX: Norepinephrine Transporter radioligand binding (ligand: [125I] RTI-55)
Type: cell membranes, MDCK, Membrane
Conditions: mdck; Not Active = under 50% inhibition at 10 µM

Sodium-dependent noradrenaline transporter, sequence (P23975 whole entry): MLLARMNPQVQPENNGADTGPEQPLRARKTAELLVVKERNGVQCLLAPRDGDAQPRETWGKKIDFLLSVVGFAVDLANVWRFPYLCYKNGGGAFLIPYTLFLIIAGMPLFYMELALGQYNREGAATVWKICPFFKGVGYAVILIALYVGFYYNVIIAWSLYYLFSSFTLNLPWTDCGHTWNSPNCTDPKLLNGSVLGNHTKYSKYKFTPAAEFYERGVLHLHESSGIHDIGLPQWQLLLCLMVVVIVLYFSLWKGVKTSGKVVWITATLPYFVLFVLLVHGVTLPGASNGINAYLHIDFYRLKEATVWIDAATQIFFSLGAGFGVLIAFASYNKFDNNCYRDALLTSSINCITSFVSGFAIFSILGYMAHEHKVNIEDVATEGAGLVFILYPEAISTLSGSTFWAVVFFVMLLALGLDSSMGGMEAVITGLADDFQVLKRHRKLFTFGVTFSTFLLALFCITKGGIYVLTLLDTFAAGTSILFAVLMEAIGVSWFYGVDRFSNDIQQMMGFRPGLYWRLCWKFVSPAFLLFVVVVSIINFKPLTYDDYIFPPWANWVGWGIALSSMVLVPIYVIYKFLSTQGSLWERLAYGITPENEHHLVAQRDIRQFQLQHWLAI

Molecule	IC50	Ki
CNC(=C[N+](=O)[O-])NCCSCc1csc(CN(C)C)n1 [NIZATIDINE]	Not Active	–
C[C@]12C/C(=C/O)C(=O)C[C@@H]1CC[C@@H]1[C@@H]2CC[C@@]2(C)[C@H]1CC[C@]2(C)O [OXYMETHOLONE]	Not Active	–
CC(C)(CO)C(O)C(=O)NCCCO (centres undefined) [PANTHENOL]	Not Active	–
COc1ccc(Cc2nccc3cc(OC)c(OC)cc23)cc1OC [PAPAVERINE]	Not Active	–
OCCN1CCN(CCCN2c3ccccc3Sc3ccc(Cl)cc32)CC1 [PERPHENAZINE]	Not Active	–
CCCCC1C(=O)N(c2ccccc2)N(c2ccccc2)C1=O [PHENYLBUTAZONE]	Not Active	–
Cc1cccc(Nc2cc(Cl)nc(SCC(=O)O)n2)c1C [PIRINIXIC ACID]	Not Active	–
CC[C@H](C)C(=O)O[C@H]1C[C@H](O)C=C2C=C[C@H](C)[C@H](CC[C@@H](O)C[C@@H](O)CC(=O)O)[C@H]21 [PRAVASTATIN]	Not Active	–
CC(C)(Sc1cc(C(C)(C)C)c(O)c(C(C)(C)C)c1)Sc1cc(C(C)(C)C)c(O)c(C(C)(C)C)c1 [PROBUCOL]	Not Active	–
COBALT(II) ACETYLACETONATE	Not Active	Not Active
INSULIN HUMAN	Not Active	Not Active
POLYVINYL ALCOHOL	Not Active	Not Active

Biological target: 5-hydroxytryptamine receptor 2B (Homo sapiens, UniProt P41595); also: in other assays of this panel Not Active means under 50% inhibition at 10 µM
Sequence (P41595 whole entry): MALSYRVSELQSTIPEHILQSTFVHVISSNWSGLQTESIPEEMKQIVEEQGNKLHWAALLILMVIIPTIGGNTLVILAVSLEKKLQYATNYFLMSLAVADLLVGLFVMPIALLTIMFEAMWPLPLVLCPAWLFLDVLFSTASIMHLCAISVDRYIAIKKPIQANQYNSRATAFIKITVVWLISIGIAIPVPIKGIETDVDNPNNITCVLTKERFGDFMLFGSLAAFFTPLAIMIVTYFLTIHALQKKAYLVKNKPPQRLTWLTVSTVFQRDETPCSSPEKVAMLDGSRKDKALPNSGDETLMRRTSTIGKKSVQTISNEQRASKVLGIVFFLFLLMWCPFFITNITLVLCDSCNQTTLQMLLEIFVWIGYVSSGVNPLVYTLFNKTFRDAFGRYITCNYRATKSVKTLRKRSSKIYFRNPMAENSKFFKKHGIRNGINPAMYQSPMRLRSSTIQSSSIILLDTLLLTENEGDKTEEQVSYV
Type: cell membranes, CHO-K1, Membrane
Conditions: cho-k1

Molecule	IC50	Ki
CNC(=C[N+](=O)[O-])NCCSCc1csc(CN(C)C)n1 [NIZATIDINE]	Not Active	–
C[C@]12C/C(=C/O)C(=O)C[C@@H]1CC[C@@H]1[C@@H]2CC[C@@]2(C)[C@H]1CC[C@]2(C)O [OXYMETHOLONE]	Not Active	–
CC(C)(CO)C(O)C(=O)NCCCO (centres undefined) [PANTHENOL]	Not Active	–
COc1ccc(Cc2nccc3cc(OC)c(OC)cc23)cc1OC [PAPAVERINE]	Not Active	–
OCCN1CCN(CCCN2c3ccccc3Sc3ccc(Cl)cc32)CC1 [PERPHENAZINE]	Not Active	–
CCCCC1C(=O)N(c2ccccc2)N(c2ccccc2)C1=O [PHENYLBUTAZONE]	Not Active	–
Cc1cccc(Nc2cc(Cl)nc(SCC(=O)O)n2)c1C [PIRINIXIC ACID]	Not Active	–
CC[C@H](C)C(=O)O[C@H]1C[C@H](O)C=C2C=C[C@H](C)[C@H](CC[C@@H](O)C[C@@H](O)CC(=O)O)[C@H]21 [PRAVASTATIN]	Not Active	–
CC(C)(Sc1cc(C(C)(C)C)c(O)c(C(C)(C)C)c1)Sc1cc(C(C)(C)C)c(O)c(C(C)(C)C)c1 [PROBUCOL]	Not Active	–
COBALT(II) ACETYLACETONATE	Not Active	Not Active
INSULIN HUMAN	Not Active	Not Active
POLYVINYL ALCOHOL	Not Active	Not Active

Biological target: T1, Cysteinyl leukotriene receptor 1 (Homo sapiens, UniProt Q9Y271); also: in other assays of this panel Not Active means under 50% inhibition at 10 µM
T1 sequence (Q9Y271 whole entry): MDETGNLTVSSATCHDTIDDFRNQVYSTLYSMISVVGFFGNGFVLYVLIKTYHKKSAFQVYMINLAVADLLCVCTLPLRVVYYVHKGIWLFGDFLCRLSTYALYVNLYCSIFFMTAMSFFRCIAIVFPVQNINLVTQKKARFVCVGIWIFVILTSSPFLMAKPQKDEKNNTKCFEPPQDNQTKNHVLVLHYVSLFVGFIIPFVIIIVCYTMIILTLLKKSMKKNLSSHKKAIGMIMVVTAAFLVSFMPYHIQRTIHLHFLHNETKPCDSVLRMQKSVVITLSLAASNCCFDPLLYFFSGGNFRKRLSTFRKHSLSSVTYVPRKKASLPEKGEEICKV
Type: cell membranes, Membrane
Conditions: cho-k1

Molecule	IC50	Ki
CNC(=C[N+](=O)[O-])NCCSCc1csc(CN(C)C)n1 [NIZATIDINE]	Not Active	–
C[C@]12C/C(=C/O)C(=O)C[C@@H]1CC[C@@H]1[C@@H]2CC[C@@]2(C)[C@H]1CC[C@]2(C)O [OXYMETHOLONE]	Not Active	–
CC(C)(CO)C(O)C(=O)NCCCO (centres undefined) [PANTHENOL]	Not Active	–
COc1ccc(Cc2nccc3cc(OC)c(OC)cc23)cc1OC [PAPAVERINE]	–	Not Active
OCCN1CCN(CCCN2c3ccccc3Sc3ccc(Cl)cc32)CC1 [PERPHENAZINE]	Not Active	–
CCCCC1C(=O)N(c2ccccc2)N(c2ccccc2)C1=O [PHENYLBUTAZONE]	Not Active	–
Cc1cccc(Nc2cc(Cl)nc(SCC(=O)O)n2)c1C [PIRINIXIC ACID]	Not Active	–
CC[C@H](C)C(=O)O[C@H]1C[C@H](O)C=C2C=C[C@H](C)[C@H](CC[C@@H](O)C[C@@H](O)CC(=O)O)[C@H]21 [PRAVASTATIN]	Not Active	–
CC(C)(Sc1cc(C(C)(C)C)c(O)c(C(C)(C)C)c1)Sc1cc(C(C)(C)C)c(O)c(C(C)(C)C)c1 [PROBUCOL]	Not Active	–
COBALT(II) ACETYLACETONATE	Not Active	Not Active
INSULIN HUMAN	Not Active	Not Active
POLYVINYL ALCOHOL	Not Active	Not Active

Biological target: T2, Amine oxidase [flavin-containing] A (Homo sapiens, UniProt P21397)
T2 sequence (P21397 whole entry): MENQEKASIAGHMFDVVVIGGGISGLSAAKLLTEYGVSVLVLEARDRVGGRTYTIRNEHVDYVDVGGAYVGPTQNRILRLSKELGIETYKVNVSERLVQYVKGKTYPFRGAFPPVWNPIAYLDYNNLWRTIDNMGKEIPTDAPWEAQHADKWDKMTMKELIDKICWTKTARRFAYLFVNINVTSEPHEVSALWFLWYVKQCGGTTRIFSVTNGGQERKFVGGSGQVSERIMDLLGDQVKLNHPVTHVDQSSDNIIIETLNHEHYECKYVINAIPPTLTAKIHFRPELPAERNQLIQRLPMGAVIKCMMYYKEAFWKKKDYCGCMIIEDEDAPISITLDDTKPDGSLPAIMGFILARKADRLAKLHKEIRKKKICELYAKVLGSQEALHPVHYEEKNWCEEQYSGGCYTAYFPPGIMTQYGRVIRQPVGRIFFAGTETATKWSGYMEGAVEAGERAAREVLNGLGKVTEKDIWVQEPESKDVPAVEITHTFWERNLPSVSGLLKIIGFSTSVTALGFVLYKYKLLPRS
Assay: DRUGMATRIX: Monoamine Oxidase MAO-A enzyme inhibition (substrate: Kynuramine)
Parameters: species or system BTI-TN-5B1-4
Conditions: bti-tn-5b1-4; Not Active = under 50% inhibition at 10 µM

Molecule	IC50	Ki
CNC(=C[N+](=O)[O-])NCCSCc1csc(CN(C)C)n1 [NIZATIDINE]	Not Active	–
C[C@]12C/C(=C/O)C(=O)C[C@@H]1CC[C@@H]1[C@@H]2CC[C@@]2(C)[C@H]1CC[C@]2(C)O [OXYMETHOLONE]	Not Active	–
CC(C)(CO)C(O)C(=O)NCCCO (centres undefined) [PANTHENOL]	Not Active	–
COc1ccc(Cc2nccc3cc(OC)c(OC)cc23)cc1OC [PAPAVERINE]	Not Active	–
OCCN1CCN(CCCN2c3ccccc3Sc3ccc(Cl)cc32)CC1 [PERPHENAZINE]	Not Active	–
CCCCC1C(=O)N(c2ccccc2)N(c2ccccc2)C1=O [PHENYLBUTAZONE]	Not Active	–
Cc1cccc(Nc2cc(Cl)nc(SCC(=O)O)n2)c1C [PIRINIXIC ACID]	Not Active	–
CC[C@H](C)C(=O)O[C@H]1C[C@H](O)C=C2C=C[C@H](C)[C@H](CC[C@@H](O)C[C@@H](O)CC(=O)O)[C@H]21 [PRAVASTATIN]	Not Active	–
CC(C)(Sc1cc(C(C)(C)C)c(O)c(C(C)(C)C)c1)Sc1cc(C(C)(C)C)c(O)c(C(C)(C)C)c1 [PROBUCOL]	Not Active	–
COBALT(II) ACETYLACETONATE	Not Active	Not Active
INSULIN HUMAN	Not Active	Not Active
POLYVINYL ALCOHOL	Not Active	Not Active

Biological target: Protein phosphatase 3 catalytic subunit alpha (Homo sapiens, UniProt Q08209);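 also: inhibition of calcineurin (PP2B) enzyme activity, measured with DiFMUP as the substrate; in other assays of this panel Not Active means under 50% inhibition at 10 µM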
Parameters: species or system Escherichia coli
Conditions: not given

Molecule	IC50	Ki
CNC(=C[N+](=O)[O-])NCCSCc1csc(CN(C)C)n1 [NIZATIDINE]	Not Active	–
C[C@]12C/C(=C/O)C(=O)C[C@@H]1CC[C@@H]1[C@@H]2CC[C@@]2(C)[C@H]1CC[C@]2(C)O [OXYMETHOLONE]	Not Active	–
CC(C)(CO)C(O)C(=O)NCCCO (centres undefined) [PANTHENOL]	Not Active	–
COc1ccc(Cc2nccc3cc(OC)c(OC)cc23)cc1OC [PAPAVERINE]	Not Active	–
OCCN1CCN(CCCN2c3ccccc3Sc3ccc(Cl)cc32)CC1 [PERPHENAZINE]	Not Active	–
CCCCC1C(=O)N(c2ccccc2)N(c2ccccc2)C1=O [PHENYLBUTAZONE]	Not Active	–
Cc1cccc(Nc2cc(Cl)nc(SCC(=O)O)n2)c1C [PIRINIXIC ACID]	Not Active	–
CC[C@H](C)C(=O)O[C@H]1C[C@H](O)C=C2C=C[C@H](C)[C@H](CC[C@@H](O)C[C@@H](O)CC(=O)O)[C@H]21 [PRAVASTATIN]	Not Active	–
CC(C)(Sc1cc(C(C)(C)C)c(O)c(C(C)(C)C)c1)Sc1cc(C(C)(C)C)c(O)c(C(C)(C)C)c1 [PROBUCOL]	Not Active	–
COBALT(II) ACETYLACETONATE	Not Active	Not Active
INSULIN HUMAN	Not Active	Not Active
POLYVINYL ALCOHOL	Not Active	Not Active

Test system: not listed separately
Assay: DRUGMATRIX: Purinergic P2X radioligand binding (ligand: [3H] alpha, beta-Methylene-ATP)
Type: cell membranes, Oryctolagus cuniculus, New Zealand albino, Urinary bladder, Membrane
Conditions: Not Active = under 50% inhibition at 10 µM

Molecule	IC50	Ki
CNC(=C[N+](=O)[O-])NCCSCc1csc(CN(C)C)n1 [NIZATIDINE]	Not Active	Not Active
C[C@]12C/C(=C/O)C(=O)C[C@@H]1CC[C@@H]1[C@@H]2CC[C@@]2(C)[C@H]1CC[C@]2(C)O [OXYMETHOLONE]	Not Active	Not Active
CC(C)(CO)C(O)C(=O)NCCCO (centres undefined) [PANTHENOL]	Not Active	Not Active
COc1ccc(Cc2nccc3cc(OC)c(OC)cc23)cc1OC [PAPAVERINE]	Not Active	Not Active
OCCN1CCN(CCCN2c3ccccc3Sc3ccc(Cl)cc32)CC1 [PERPHENAZINE]	Not Active	Not Active
CCCCC1C(=O)N(c2ccccc2)N(c2ccccc2)C1=O [PHENYLBUTAZONE]	Not Active	Not Active
Cc1cccc(Nc2cc(Cl)nc(SCC(=O)O)n2)c1C [PIRINIXIC ACID]	Not Active	Not Active
CC[C@H](C)C(=O)O[C@H]1C[C@H](O)C=C2C=C[C@H](C)[C@H](CC[C@@H](O)C[C@@H](O)CC(=O)O)[C@H]21 [PRAVASTATIN]	Not Active	Not Active
CC(C)(Sc1cc(C(C)(C)C)c(O)c(C(C)(C)C)c1)Sc1cc(C(C)(C)C)c(O)c(C(C)(C)C)c1 [PROBUCOL]	Not Active	Not Active
COBALT(II) ACETYLACETONATE	Not Active	Not Active
INSULIN HUMAN	Not Active	Not Active
POLYVINYL ALCOHOL	Not Active	Not Active

Biological target: Estrogen receptor beta (Homo sapiens, UniProt Q92731); also: in other assays of this panel Not Active means under 50% inhibition at 10 µM
Sequence (Q92731 whole entry): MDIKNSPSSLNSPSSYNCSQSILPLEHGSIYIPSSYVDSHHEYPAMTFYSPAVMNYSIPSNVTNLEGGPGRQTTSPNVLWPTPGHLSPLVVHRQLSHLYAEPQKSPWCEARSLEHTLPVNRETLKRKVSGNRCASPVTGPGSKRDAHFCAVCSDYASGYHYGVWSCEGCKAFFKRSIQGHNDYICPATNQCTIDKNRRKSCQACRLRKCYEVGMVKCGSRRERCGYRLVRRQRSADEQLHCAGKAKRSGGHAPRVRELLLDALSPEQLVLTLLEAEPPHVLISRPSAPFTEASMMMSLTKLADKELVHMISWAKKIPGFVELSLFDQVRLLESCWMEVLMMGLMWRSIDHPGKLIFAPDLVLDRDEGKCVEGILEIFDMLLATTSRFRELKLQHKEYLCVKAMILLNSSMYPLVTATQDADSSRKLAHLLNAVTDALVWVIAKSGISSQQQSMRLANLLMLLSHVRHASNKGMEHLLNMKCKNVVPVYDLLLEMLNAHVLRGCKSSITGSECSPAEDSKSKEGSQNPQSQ
Conditions: sf9

Molecule	IC50	Ki
CNC(=C[N+](=O)[O-])NCCSCc1csc(CN(C)C)n1 [NIZATIDINE]	Not Active	–
C[C@]12C/C(=C/O)C(=O)C[C@@H]1CC[C@@H]1[C@@H]2CC[C@@]2(C)[C@H]1CC[C@]2(C)O [OXYMETHOLONE]	Not Active	–
CC(C)(CO)C(O)C(=O)NCCCO (centres undefined) [PANTHENOL]	Not Active	–
COc1ccc(Cc2nccc3cc(OC)c(OC)cc23)cc1OC [PAPAVERINE]	Not Active	–
OCCN1CCN(CCCN2c3ccccc3Sc3ccc(Cl)cc32)CC1 [PERPHENAZINE]	Not Active	–
CCCCC1C(=O)N(c2ccccc2)N(c2ccccc2)C1=O [PHENYLBUTAZONE]	Not Active	–
Cc1cccc(Nc2cc(Cl)nc(SCC(=O)O)n2)c1C [PIRINIXIC ACID]	Not Active	–
CC[C@H](C)C(=O)O[C@H]1C[C@H](O)C=C2C=C[C@H](C)[C@H](CC[C@@H](O)C[C@@H](O)CC(=O)O)[C@H]21 [PRAVASTATIN]	Not Active	–
CC(C)(Sc1cc(C(C)(C)C)c(O)c(C(C)(C)C)c1)Sc1cc(C(C)(C)C)c(O)c(C(C)(C)C)c1 [PROBUCOL]	Not Active	–
COBALT(II) ACETYLACETONATE	Not Active	Not Active
INSULIN HUMAN	Not Active	Not Active
POLYVINYL ALCOHOL	Not Active	Not Active
